{
  "source": "patent US12221481B2",
  "about": "“CD19 binding molecules and uses thereof” (Novartis AG, priority 2019, dated 2025)",
  "key": {"Karpas422 target cells": {"tested_on": "Karpas422 target cells", "assay": "Re-challenge RTCC assay, Karpas 422", "assay_type": "cell-based, human", "conditions": "last re-challenge", "procedure": "OCI-LY-19 and Karpas422 target cells stably expressing firefly luciferase were plated in a Costar 6 well plate in T Cell Media (TCM). PBMCs previously isolated and cryopreserved from 2 Leukopak donors were thawed and Pan T cells were isolated (as described earlier). […] The plates were incubated for 4 days for OCI-LY-19 and 5 days for Karpas 422 cells. At the end of incubation, the killing of target cells was determined using the luminescence signal. The absolute T cell counts from each antibody treated condition was also determined. For the next round of rechallenge, it was ensured that the killing of target cells was equivalent across various antibody conditions. […] Additionally, a dose titration RTCC at a E:T of 1:1 and a concentration range of 2 nM-0.000001 nM was set-up using T cells from the different antibody treated conditions with a 4 day incubation used for each cell line. The killing of target cells was determined using the luminescence signal to generate dose response curves. At the end of the challenge, the above process was repeated once more for Karpas 422 and twice more for OCI-LY-19 cells."}, "T cells": {"tested_on": "T cells", "assay": "TBM and BBM mediated T cell proliferation (Example 20)", "assay_type": "cell-based, human", "conditions": "in the presence of OCI-LY-19 and Toledo cells", "procedure": "Briefly, OCI-LY-19, Karpas422, and Toledo target cells stably expressing firefly luciferase were plated in a 96 well plate in T Cell Media (TCM) (RPMI-1640, ThermoFisher Scientific, Cat #11875-085), 10% FBS (Seradigm, Cat #1500-500), 1% L-Glutamine (Thermo Fisher Scientific, Cat #25830-081), 1% Non Essential Amino Acids (Thermo Fisher Scientific, Cat #11140-050), 1% Pen/Strep (Thermo Fisher Scientific, Cat #15070063), 1% HEPES (Thermo Fisher Scientific, Cat #15630080), Sodium Pyruvate (Thermo Fisher Scientific, Cat #11360-070), 0.1% Beta-mercaptoethanol (Thermo Fisher Scientific, Cat #21985-023)]. PBMCs previously isolated and cryopreserved from 2 Leukopak donors were thawed and Pan T cells were isolated (as described earlier). Isolated T cells were labelled with 5 μM Cell Trace Violet (CTV) (Thermo Fisher Scientific, Cat #C34557) following the manufacturer's protocol and were co-cultured with target cells at an E:T ratio of 1:3. A dilution series of CD3med TSP1, CD3hi TSP1, CD3hi BSP1, CD3hi TSP1C, and blinatumomab ranging from 2.5 nM-0.0006 nM was added to cells and the plates were incubated in a 5% CO2, 37° C. incubator for 96 hrs. […]"}},
  "data": [
    {"substance": "blinatumomab: bispecific T cell engager, or BiTE, that binds to both CD19 and CD3 but lacks an Fc domain [reference compound]", "values": [
      {"measurement": "maximum lysis", "setting": "Karpas422 target cells", "value": "higher maximum lysis than CD3hi TSP1"},
      {"measurement": "T cell proliferation, potency compared between constructs", "setting": "T cells", "value": "most potent T cell proliferation"}
    ]}
  ]
}
